Assays:
[1] = molecular target: von Hippel-Lindau disease tumor suppressor/SWI/SNF-related matrix-associated actin-dependent regulator of chromatin subfamily A member 2 (Homo sapiens, UniProt P51531+P40337); test: PROTAC activity at SMARCA2/VHL1 in human HeLa cells assessed as protein degradation by Nano-Glo HiBiT lytic detection assay; format: cell-based
[2] = molecular target: von Hippel-Lindau disease tumor suppressor/SWI/SNF-related matrix-associated actin-dependent regulator of chromatin subfamily A member 4 (Homo sapiens, UniProt P51532+P40337); test: PROTAC activity at SMARCA4/VHL1 in human HeLa cells assessed as protein degradation by Nano-Glo HiBiT lytic detection assay; format: cell-based
[3] = organism: Homo sapiens; test: Selectivity ratio, ratio of DC50 for PROTAC activity at SMARCA2/E3 ubiquitin ligase (unknown origin) to DC50 for PROTAC activity at SMARCA4/E3 ubiquitin ligase (unknown origin
[4] = PROTAC activity at SMARCA4/E3 ubiquitin ligase (unknown origin) assessed as protein degradation; parameters: species or system Homo sapiens
[5] = organism: Homo sapiens; test: PROTAC activity at SMARCA4/E3 ubiquitin ligase (unknown origin) assessed as maximal protein degradation
[6] = organism: Homo sapiens; test: PROTAC activity at SMARCA2/E3 ubiquitin ligase (unknown origin) assessed as maximal protein degradation
[7] = PROTAC activity at SMARCA2/E3 ubiquitin ligase (unknown origin) assessed as protein degradation; parameters: species or system Homo sapiens
[8] = Drug uptake in tumor of human NCI-H838 cells xenografted SCID mouse model at 10 mg/kg, iv measured after 96 hrs by LC-MS/MS analysis; format: ADME, organism-based, Neoplasm; settings: read-out: Drug uptake
[9] = Plasma concentration in SCID mouse xenografted with human NCI-H838 cells at 10 mg/kg, iv measured after 96 hrs by LC-MS/MS analysis; format: ADME, organism-based
[10] = Plasma concentration in SCID mouse xenografted with human NCI-H838 cells at 10 mg/kg, iv measured after 24 hrs by LC-MS/MS analysis; format: ADME, organism-based
[11] = Drug uptake in tumor of human NCI-H838 cells xenografted SCID mouse model at 10 mg/kg, iv measured after 24 hrs by LC-MS/MS analysis; format: ADME, organism-based, Neoplasm; settings: read-out: Drug uptake
[12] = molecular target: SWI/SNF-related matrix-associated actin-dependent regulator of chromatin subfamily A member 4 (Homo sapiens, UniProt P51532); test: Inhibition of SMARCA4 (unknown origin)
[13] = molecular target: SWI/SNF-related matrix-associated actin-dependent regulator of chromatin subfamily A member 2 (Homo sapiens, UniProt P51531); test: Inhibition of SMARCA2 (unknown origin)
SWI/SNF-related matrix-associated actin-dependent regulator of chromatin subfamily A member 2, sequence (P51531 whole entry): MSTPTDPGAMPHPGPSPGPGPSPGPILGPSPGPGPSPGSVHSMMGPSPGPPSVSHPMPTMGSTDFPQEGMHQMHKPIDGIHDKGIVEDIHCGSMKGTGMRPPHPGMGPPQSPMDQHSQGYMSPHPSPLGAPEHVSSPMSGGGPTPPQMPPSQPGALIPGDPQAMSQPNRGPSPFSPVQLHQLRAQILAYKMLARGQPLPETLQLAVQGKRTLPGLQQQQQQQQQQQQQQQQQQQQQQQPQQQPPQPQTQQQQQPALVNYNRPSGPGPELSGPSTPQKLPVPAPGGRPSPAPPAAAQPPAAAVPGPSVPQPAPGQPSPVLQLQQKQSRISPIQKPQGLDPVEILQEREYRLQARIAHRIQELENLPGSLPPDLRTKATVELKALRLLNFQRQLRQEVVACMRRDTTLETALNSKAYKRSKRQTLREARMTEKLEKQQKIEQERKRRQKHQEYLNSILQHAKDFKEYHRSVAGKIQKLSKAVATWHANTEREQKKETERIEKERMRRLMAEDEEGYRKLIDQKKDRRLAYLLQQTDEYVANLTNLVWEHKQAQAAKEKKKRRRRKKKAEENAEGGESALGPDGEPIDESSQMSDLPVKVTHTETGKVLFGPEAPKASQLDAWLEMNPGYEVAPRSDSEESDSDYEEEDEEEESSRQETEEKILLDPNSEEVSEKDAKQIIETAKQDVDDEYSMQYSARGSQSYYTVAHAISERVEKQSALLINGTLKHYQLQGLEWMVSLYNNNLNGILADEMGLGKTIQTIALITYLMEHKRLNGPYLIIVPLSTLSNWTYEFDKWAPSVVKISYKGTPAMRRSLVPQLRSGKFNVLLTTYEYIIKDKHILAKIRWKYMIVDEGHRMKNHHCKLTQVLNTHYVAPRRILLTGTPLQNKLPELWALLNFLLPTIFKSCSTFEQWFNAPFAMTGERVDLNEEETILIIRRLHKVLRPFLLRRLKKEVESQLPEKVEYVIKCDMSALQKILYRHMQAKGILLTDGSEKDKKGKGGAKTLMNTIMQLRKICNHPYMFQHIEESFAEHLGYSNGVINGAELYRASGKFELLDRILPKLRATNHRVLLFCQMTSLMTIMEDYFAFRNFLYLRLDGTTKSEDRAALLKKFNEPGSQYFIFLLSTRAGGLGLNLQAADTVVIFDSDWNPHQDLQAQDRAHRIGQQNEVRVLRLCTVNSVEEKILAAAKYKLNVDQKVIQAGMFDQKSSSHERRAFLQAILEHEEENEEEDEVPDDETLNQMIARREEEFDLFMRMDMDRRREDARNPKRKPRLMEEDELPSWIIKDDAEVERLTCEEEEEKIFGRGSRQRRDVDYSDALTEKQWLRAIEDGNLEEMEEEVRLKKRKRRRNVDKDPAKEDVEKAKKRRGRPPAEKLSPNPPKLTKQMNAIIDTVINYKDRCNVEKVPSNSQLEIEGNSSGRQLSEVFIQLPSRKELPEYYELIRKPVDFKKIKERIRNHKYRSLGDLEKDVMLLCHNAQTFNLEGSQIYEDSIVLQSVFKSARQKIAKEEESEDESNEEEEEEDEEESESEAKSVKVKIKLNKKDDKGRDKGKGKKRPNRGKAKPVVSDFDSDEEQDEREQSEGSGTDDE

von Hippel-Lindau disease tumor suppressor/SWI/SNF-related matrix-associated actin-dependent regulator of chromatin subfamily A member 4, sequence (P51532 whole entry): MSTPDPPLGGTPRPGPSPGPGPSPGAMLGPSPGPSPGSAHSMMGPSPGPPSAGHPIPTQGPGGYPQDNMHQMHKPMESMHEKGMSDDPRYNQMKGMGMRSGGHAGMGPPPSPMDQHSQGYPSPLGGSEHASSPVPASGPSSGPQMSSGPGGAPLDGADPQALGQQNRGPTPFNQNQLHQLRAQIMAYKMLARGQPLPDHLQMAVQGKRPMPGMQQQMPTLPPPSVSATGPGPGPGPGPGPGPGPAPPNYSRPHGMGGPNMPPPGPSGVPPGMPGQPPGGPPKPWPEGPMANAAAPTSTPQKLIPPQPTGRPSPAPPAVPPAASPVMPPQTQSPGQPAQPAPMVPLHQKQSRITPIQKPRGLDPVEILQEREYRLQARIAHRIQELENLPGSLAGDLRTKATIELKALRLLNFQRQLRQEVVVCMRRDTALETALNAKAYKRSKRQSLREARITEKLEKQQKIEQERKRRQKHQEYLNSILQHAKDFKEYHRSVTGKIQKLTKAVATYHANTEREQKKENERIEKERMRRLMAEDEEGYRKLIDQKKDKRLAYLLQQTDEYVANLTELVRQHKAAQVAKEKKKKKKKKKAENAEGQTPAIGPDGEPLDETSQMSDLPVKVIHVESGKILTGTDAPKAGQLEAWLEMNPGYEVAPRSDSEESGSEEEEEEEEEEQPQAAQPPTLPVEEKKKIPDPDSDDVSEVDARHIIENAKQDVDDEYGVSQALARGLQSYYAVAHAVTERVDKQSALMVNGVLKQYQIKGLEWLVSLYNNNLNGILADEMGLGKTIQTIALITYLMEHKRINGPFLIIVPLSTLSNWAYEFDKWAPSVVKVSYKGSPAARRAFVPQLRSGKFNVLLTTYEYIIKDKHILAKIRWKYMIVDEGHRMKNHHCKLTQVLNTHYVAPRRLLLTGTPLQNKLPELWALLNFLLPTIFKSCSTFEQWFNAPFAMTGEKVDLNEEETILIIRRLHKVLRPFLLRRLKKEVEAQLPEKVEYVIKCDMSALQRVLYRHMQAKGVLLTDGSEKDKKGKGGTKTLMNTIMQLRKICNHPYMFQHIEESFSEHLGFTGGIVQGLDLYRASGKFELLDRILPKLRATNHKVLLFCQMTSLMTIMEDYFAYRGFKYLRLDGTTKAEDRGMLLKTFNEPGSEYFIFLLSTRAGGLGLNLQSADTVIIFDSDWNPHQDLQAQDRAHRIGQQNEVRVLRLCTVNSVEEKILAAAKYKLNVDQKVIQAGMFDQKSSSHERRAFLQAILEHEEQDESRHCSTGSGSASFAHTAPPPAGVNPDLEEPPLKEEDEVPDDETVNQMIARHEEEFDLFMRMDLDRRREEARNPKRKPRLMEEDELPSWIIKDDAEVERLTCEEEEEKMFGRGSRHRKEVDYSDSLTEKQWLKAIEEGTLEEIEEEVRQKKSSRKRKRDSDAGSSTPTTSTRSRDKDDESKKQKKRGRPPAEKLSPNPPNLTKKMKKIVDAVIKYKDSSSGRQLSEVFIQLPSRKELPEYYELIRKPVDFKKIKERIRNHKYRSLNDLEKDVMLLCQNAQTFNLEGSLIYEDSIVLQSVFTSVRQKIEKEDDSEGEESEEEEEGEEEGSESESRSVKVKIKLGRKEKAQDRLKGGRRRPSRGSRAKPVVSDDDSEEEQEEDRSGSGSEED
von Hippel-Lindau disease tumor suppressor/SWI/SNF-related matrix-associated actin-dependent regulator of chromatin subfamily A member 4, sequence (P40337 whole entry): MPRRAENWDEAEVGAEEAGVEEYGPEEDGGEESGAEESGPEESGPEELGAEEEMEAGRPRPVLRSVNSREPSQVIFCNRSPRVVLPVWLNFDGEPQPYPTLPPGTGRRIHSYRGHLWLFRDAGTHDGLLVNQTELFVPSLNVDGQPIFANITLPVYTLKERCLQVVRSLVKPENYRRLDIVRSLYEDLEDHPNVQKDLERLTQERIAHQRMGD
von Hippel-Lindau disease tumor suppressor/SWI/SNF-related matrix-associated actin-dependent regulator of chromatin subfamily A member 2, sequence (P51531 whole entry): as the sequence (P51531 whole entry) above
von Hippel-Lindau disease tumor suppressor/SWI/SNF-related matrix-associated actin-dependent regulator of chromatin subfamily A member 2, sequence (P40337 whole entry): as the sequence (P40337 whole entry) above
SWI/SNF-related matrix-associated actin-dependent regulator of chromatin subfamily A member 4, sequence (P51532 whole entry): as the sequence (P51532 whole entry) above

Cc1ncsc1-c1ccc([C@H](CN2CCS(=O)(=O)CC2)NC(=O)[C@@H]2C[C@@H](O)CN2C(=O)[C@@H](n2cc([C@H]3CC[C@H](CN4CCC(c5ccc6c(c5)-n5c(nc(=O)c7c(Cl)cccc75)C65CCCCC5)CC4)CC3)nn2)C(C)(C)C)cc1
DC50 [1]: 5 nM
DC50 [2]: > 1000 nM

Cc1ncsc1-c1ccc([C@H](CC[C@H](C)CCN2CCC(c3ccc4c(c3)n(C3CCCC3)c3nc(=O)c5c(Br)cccc5n43)CC2)NC(=O)[C@@H]2C[C@@H](O)CN2C(=O)[C@@H](NC(=O)C2(F)CC2)C(C)(C)C)cc1
Ratio [3]: 32
DC50 [4]: 32 nM
Emax [5]: 67%
Emax [6]: 81%
DC50 [7]: 1 nM

Cc1ncsc1-c1ccc([C@H](C)NC(=O)[C@@H]2C[C@@H](O)CN2C(=O)[C@@H](n2cc([C@H]3CC[C@H](CN4CCC(c5ccc6c(c5)C5(CCCCC5)c5nc(=O)c7c(Cl)cccc7n5-6)CC4)CC3)nn2)C(C)(C)C)cc1
DC50 [1]: 0.29 nM
DC50 [2]: 3 nM

Cc1ccccc1-c1ccc([C@H](CN2CCOCC2)NC(=O)[C@@H]2C[C@@H](O)CN2C(=O)[C@@H](n2cc([C@H]3CC[C@H](CN4CCC(c5ccc6c(c5)-n5c(nc(=O)c7c(Cl)cccc75)C65CCCCC5)CC4)CC3)nn2)C(C)(C)C)cc1
DC50 [1]: 8 nM
DC50 [2]: 789 nM

Cc1ncsc1-c1ccc([C@H](C)NC(=O)[C@@H]2C[C@@H](O)CN2C(=O)[C@@H](n2cc([C@H]3CC[C@H](CN4CCC(c5ccc6c(c5)-n5c(nc(=O)c7c(Cl)cccc75)C65CCCCC5)CC4)CC3)nn2)C(C)(C)C)cc1
DC50 [1]: 0.3 nM
DC50 [2]: 115 nM

Cc1ncsc1-c1ccc([C@H](C)NC(=O)[C@@H]2C[C@@H](O)CN2C(=O)[C@@H](NC(=O)[C@H]2CC[C@H](CN3CCC(c4ccc5c(c4)C4(CCCCC4)c4nc(=O)c6c(Cl)cccc6n4-5)CC3)CC2)C(C)(C)C)cc1
DC50 [1]: 6.3 nM

Cc1ncsc1-c1ccc([C@H](CN2CC(C)(O)C2)NC(=O)[C@@H]2C[C@@H](O)CN2C(=O)[C@@H](n2cc([C@H]3CC[C@H](CN4CCC(c5ccc6c(c5)-n5c(nc(=O)c7c(Cl)cccc75)C65CCCCC5)CC4)CC3)nn2)C(C)(C)C)cc1
DC50 [1]: 2 nM
DC50 [2]: > 1000 nM

COCCOCCOCCOC[C@H](NC(=O)[C@@H]1C[C@@H](O)CN1C(=O)[C@@H](n1cc([C@H]2CC[C@H](CN3CCC(c4ccc5c(c4)-n4c(nc(=O)c6c(Cl)cccc64)C54CCCCC4)CC3)CC2)nn1)C(C)(C)C)c1ccc(-c2scnc2C)cc1
DC50 [1]: 2 nM
DC50 [2]: > 1000 nM

Cc1ncsc1-c1ccc([C@H](CN2CCOCC2)NC(=O)[C@@H]2C[C@@H](O)CN2C(=O)[C@@H](n2cc([C@H]3CC[C@H](CN4CCC(c5ccc6c(c5)-n5c(nc(=O)c7c(Cl)cccc75)C65CCCCC5)CC4)CC3)nn2)C(C)(C)O)cc1
DC50 [1]: 1 nM
DC50 [2]: > 1000 nM

COCCOCCOCCOCCOC[C@H](NC(=O)[C@@H]1C[C@@H](O)CN1C(=O)[C@@H](n1cc([C@H]2CC[C@H](CN3CCC(c4ccc5c(c4)-n4c(nc(=O)c6c(Cl)cccc64)C54CCCCC4)CC3)CC2)nn1)C(C)(C)C)c1ccc(-c2scnc2C)cc1
DC50 [1]: 3 nM
DC50 [2]: > 1000 nM

Cc1ncsc1-c1ccc([C@H](C)NC(=O)[C@@H]2C[C@@H](O)CN2C(=O)[C@@H](n2cc([C@H]3CC[C@H](CN4CCC(c5ccc6c(c5)-n5c(nc(=O)c7c(Br)cccc75)C65CCCCC5)CC4)CC3)nn2)C(C)(C)C)cc1
DC50 [1]: 0.24 nM
DC50 [2]: 22 nM

COCCOCCOC[C@H](NC(=O)[C@@H]1C[C@@H](O)CN1C(=O)[C@@H](n1cc([C@H]2CC[C@H](CN3CCC(c4ccc5c(c4)-n4c(nc(=O)c6c(Cl)cccc64)C54CCCCC4)CC3)CC2)nn1)C(C)(C)C)c1ccc(-c2scnc2C)cc1
concentration at 96 h [8]: 0.053 µg/mL
DC50 [1]: 0.4 nM
concentration at 96 h [9]: 0.0042 µg/mL
concentration at 24 h [10]: 0.0055 µg/mL
concentration at 24 h [11]: 0.113 µg/mL
DC50 [2]: > 1000 nM

Cc1ncsc1-c1ccc([C@H](CN2CC(C(=O)O)C2)NC(=O)[C@@H]2C[C@@H](O)CN2C(=O)[C@@H](n2cc([C@H]3CC[C@H](CN4CCC(c5ccc6c(c5)-n5c(nc(=O)c7c(Cl)cccc75)C65CCCCC5)CC4)CC3)nn2)C(C)(C)C)cc1
DC50 [1]: 228 nM
DC50 [2]: > 1000 nM

Cc1nc(C)c(-c2ccc([C@H](CN3CCOCC3)NC(=O)[C@@H]3C[C@@H](O)CN3C(=O)[C@@H](n3cc([C@H]4CC[C@H](CN5CCC(c6ccc7c(c6)-n6c(nc(=O)c8c(Cl)cccc86)C76CCCCC6)CC5)CC4)nn3)C(C)(C)C)cc2)s1
DC50 [1]: 1 nM
DC50 [2]: > 1000 nM

Cc1ncsc1-c1ccc([C@H](C)NC(=O)[C@@H]2C[C@@H](O)CN2C(=O)[C@@H](n2cc([C@H]3CC[C@H](CN4CCC(c5ccc6c(c5)C5(CCCCC5)c5nc(=O)c7c(Br)cccc7n5-6)CC4)CC3)nn2)C(C)(C)C)cc1
DC50 [1]: 0.15 nM
DC50 [2]: 2 nM

Cc1ncsc1-c1ccc([C@H](CN2CCC(F)(F)CC2)NC(=O)[C@@H]2C[C@@H](O)CN2C(=O)[C@@H](n2cc([C@H]3CC[C@H](CN4CCC(c5ccc6c(c5)-n5c(nc(=O)c7c(Cl)cccc75)C65CCCCC5)CC4)CC3)nn2)C(C)(C)C)cc1
DC50 [1]: 2 nM
DC50 [2]: > 1000 nM

CC(C)(C)[C@@H](C(=O)N1C[C@H](O)C[C@H]1C(=O)N[C@@H](CN1CCOCC1)c1ccc(-c2ccccc2F)cc1)n1cc([C@H]2CC[C@H](CN3CCC(c4ccc5c(c4)-n4c(nc(=O)c6c(Cl)cccc64)C54CCCCC4)CC3)CC2)nn1
DC50 [1]: 1 nM
DC50 [2]: 222 nM

Cc1ncsc1-c1ccc([C@H](C)NC(=O)[C@@H]2C[C@@H](O)CN2C(=O)[C@@H](NC(=O)[C@H]2CC[C@H](CN3CCC(c4ccc5c(c4)-n4c(nc(=O)c6c(Cl)cccc64)C54CCCCC4)CC3)CC2)C(C)(C)C)cc1
DC50 [1]: 8 nM

Cc1ncsc1-c1ccc([C@H](C)NC(=O)[C@H]2C[C@@H](O)CN2C(=O)[C@@H](c2cc(N3CCC(CN4CCC(O[C@H]5C[C@H](Oc6cc(N7C8CCC7CN(c7cc(-c9ccccc9O)nnc7N)C8)ccn6)C5)CC4)CC3)no2)C(C)C)cc1
DC50 [4]: 1.1 nM
DC50 [7]: 0.04 nM

Cc1ncsc1-c1ccc(CNC(=O)[C@@H]2C[C@@H](O)CN2C(=O)[C@@H](NC(=O)C2(F)CC2)C(C)(C)C)c(OCCOc2ccc(CN3CCN(c4cc(-c5ccccc5O)nnc4N)CC3)cc2)c1
Ratio [3]: 2
DC50 [4]: 11 nM
Emax [5]: > 95%
Emax [6]: > 95%
DC50 [7]: 6 nM

Cc1ncoc1-c1ccc([C@H](CN2CCOCC2)NC(=O)[C@@H]2C[C@@H](O)CN2C(=O)[C@@H](n2cc([C@H]3CC[C@H](CN4CCC(c5ccc6c(c5)-n5c(nc(=O)c7c(Cl)cccc75)C65CCCCC5)CC4)CC3)nn2)C(C)(C)C)cc1
DC50 [1]: 1 nM
DC50 [2]: > 1000 nM

Cc1ncsc1-c1ccc([C@H](CN2CCC(C(=O)O)CC2)NC(=O)[C@@H]2C[C@@H](O)CN2C(=O)[C@@H](n2cc([C@H]3CC[C@H](CN4CCC(c5ccc6c(c5)-n5c(nc(=O)c7c(Cl)cccc75)C65CCCCC5)CC4)CC3)nn2)C(C)(C)C)cc1
DC50 [1]: 111 nM
DC50 [2]: > 1000 nM

Cc1ncsc1-c1ccc([C@H](CN2CCN(C)CC2)NC(=O)[C@@H]2C[C@@H](O)CN2C(=O)[C@@H](n2cc([C@H]3CC[C@H](CN4CCC(c5ccc6c(c5)-n5c(nc(=O)c7c(Cl)cccc75)C65CCCCC5)CC4)CC3)nn2)C(C)(C)C)cc1
DC50 [1]: 1 nM
DC50 [2]: 62 nM

CC(C)(C)[C@@H](C(=O)N1C[C@H](O)C[C@H]1C(=O)N[C@@H](CN1CCOCC1)c1ccc(-c2ccccc2)cc1)n1cc([C@H]2CC[C@H](CN3CCC(c4ccc5c(c4)-n4c(nc(=O)c6c(Cl)cccc64)C54CCCCC4)CC3)CC2)nn1
DC50 [1]: 5 nM
DC50 [2]: 430 nM

O=c1nc2n(c3cccc(Cl)c13)-c1cc(C3CCNCC3)ccc1C21CCCCC1
IC50 [12]: 83 nM
IC50 [13]: 66 nM

COCCOC[C@H](NC(=O)[C@@H]1C[C@@H](O)CN1C(=O)[C@@H](n1cc([C@H]2CC[C@H](CN3CCC(c4ccc5c(c4)-n4c(nc(=O)c6c(Cl)cccc64)C54CCCCC4)CC3)CC2)nn1)C(C)(C)C)c1ccc(-c2scnc2C)cc1
concentration at 96 h [8]: 0.079 µg/mL
DC50 [1]: 0.4 nM
concentration at 96 h [9]: 0.0083 µg/mL
concentration at 24 h [10]: 0.013 µg/mL
concentration at 24 h [11]: 0.255 µg/mL
DC50 [2]: > 1000 nM

Cc1nc(C)c(-c2ccc([C@H](CN3CCOCC3)NC(=O)[C@@H]3C[C@@H](O)CN3C(=O)[C@@H](n3cc([C@H]4CC[C@H](CN5CCC(c6ccc7c(c6)-n6c(nc(=O)c8c(Cl)cccc86)C76CCCCC6)CC5)CC4)nn3)C(C)(C)C)cc2)o1
DC50 [1]: 1 nM
DC50 [2]: 575 nM

Cc1ncsc1-c1ccc([C@H](CN2CC(C)(F)C2)NC(=O)[C@@H]2C[C@@H](O)CN2C(=O)[C@@H](n2cc([C@H]3CC[C@H](CN4CCC(c5ccc6c(c5)-n5c(nc(=O)c7c(Cl)cccc75)C65CCCCC5)CC4)CC3)nn2)C(C)(C)C)cc1
DC50 [1]: 1 nM
DC50 [2]: > 1000 nM

O=c1nc2n(c3cccc(Cl)c13)-c1ccc(C3CCNCC3)cc1C21CCCCC1
IC50 [12]: 58 nM
IC50 [13]: 43 nM

CC(C)(C)[C@@H](C(=O)N1C[C@H](O)C[C@H]1C(=O)N[C@@H](CN1CCOCC1)c1ccc(-c2ocnc2C(F)(F)F)cc1)n1cc([C@H]2CC[C@H](CN3CCC(c4ccc5c(c4)-n4c(nc(=O)c6c(Cl)cccc64)C54CCCCC4)CC3)CC2)nn1
DC50 [1]: 16 nM
DC50 [2]: > 1000 nM
